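Grown in 96-well plates, cells were treated for 48 hours with each compound at five concentrations. Insufficient inhibition: endpoint recorded as highest concentration tested. Definition used: TGI = concentration required for complete inhibition of growth.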
Columns and labels:
Test in all cases: NCI anticancer screen, dose series, 48 h
786-0 renal = system: 786-0 renal
A498 renal = system: A498 renal
A549 NSCLC = system: A549 NSCLC
ACHN renal = system: ACHN renal
BT-549 breast = system: BT-549 breast
CCRF-CEM leukemia = system: CCRF-CEM leukemia
COLO 205 colon = system: COLO 205 colon
DU-145 prostate = system: DU-145 prostate
EKVX NSCLC = system: EKVX NSCLC
HCC-2998 colon = system: HCC-2998 colon
HCT-116 colon = system: HCT-116 colon
HCT-15 colon = system: HCT-15 colon
HOP-62 NSCLC = system: HOP-62 NSCLC
HS 578T breast = system: HS 578T breast
HT29 colon = system: HT29 colon
K-562 leukemia = system: K-562 leukemia
KM12 colon = system: KM12 colon
LOX IMVI melanoma = system: LOX IMVI melanoma
M14 melanoma = system: M14 melanoma
MALME-3M melanoma = system: MALME-3M melanoma
MCF7 breast = system: MCF7 breast
MDA-MB-231 breast = system: MDA-MB-231 breast
MDA-MB-435 = system: MDA-MB-435
MDA-N = system: MDA-N
MOLT-4 leukemia = system: MOLT-4 leukemia
NCI-H226 lung = system: NCI-H226 lung
NCI-H23 lung = system: NCI-H23 lung
NCI-H460 lung = system: NCI-H460 lung
NCI-H522 lung = system: NCI-H522 lung
NCI/ADR-RES ovarian = system: NCI/ADR-RES ovarian
OVCAR-3 ovarian = system: OVCAR-3 ovarian
OVCAR-5 ovarian = system: OVCAR-5 ovarian
OVCAR-8 ovarian = system: OVCAR-8 ovarian
PC-3 prostate = system: PC-3 prostate
RPMI-8226 leukemia = system: RPMI-8226 leukemia
SF-268 CNS = system: SF-268 CNS
SF-295 CNS = system: SF-295 CNS
SF-539 CNS = system: SF-539 CNS
SK-MEL-2 melanoma = system: SK-MEL-2 melanoma
SK-MEL-28 melanoma = system: SK-MEL-28 melanoma
SN12C renal = system: SN12C renal
SNB-19 CNS = system: SNB-19 CNS
SNB-75 CNS = system: SNB-75 CNS
SR leukemia = system: SR leukemia
SW-620 colon = system: SW-620 colon
T-47D breast = system: T-47D breast
TK-10 renal = system: TK-10 renal
U251 CNS = system: U251 CNS
UACC-257 melanoma = system: UACC-257 melanoma
UO-31 renal = system: UO-31 renal

Measured: TGI

Cc1nc(N)c(N2CCN(C#N)CC2)c(=O)[nH]1
> 100 µM: all assays above
